Calls of active or inactive are those of the source. The calls are words filed in the database; no cut-off is given here. Peptide text beside a SMILES is read from it. * marks the point of attachment. Biotin = O=C1N[C@H]2[C@H](CS[C@H]2CCCCC(=O)*)N1; PEG4 = NCCOCCOCCOCCOCCC(=O)O
Columns and labels:
Homo sapiens [1] = species: Homo sapiens; experiment: Binding affinity to human recombinant Hsp70 expressed in Escherichia coli in presence of 1% Triton-X-100 after 1 hr by Western blot analysis based pull down assay
[2] = target: Heat shock protein HSP90 (Homo sapiens) (UniProt P07900+P08238); experiment: Binding affinity to Hsp90 (unknown origin) at 10 to 200 uM after 1 hr by Western blot analysis based pull down assay; assay type: protein assay
[3] = target: Stress-induced-phosphoprotein 1 (Homo sapiens) (UniProt P31948); experiment: Inhibition of (2S,8S,11S,14S)-2-(4-aminobutyl)-14-(3-guanidinopropyl)-8-(4-hydroxybenzyl)-11-(hydroxymethyl)-4,7,10,13,16,32-hexaoxo-36-((3aS,4S,6aR)-2-oxohexahydro-1H-thieno[3,4-d]imidazol-4-yl)-19,22,25,28-tetraoxa-3,6,9,12,15,31-hexaazahexatriacontan-1-oic acid binding to His-tagged human HOP expressed in Escherichia coli up to 200 uM by Western blot analysis
Chain of Stress-induced-phosphoprotein 1 (Homo sapiens) (P31948 whole entry, looked up): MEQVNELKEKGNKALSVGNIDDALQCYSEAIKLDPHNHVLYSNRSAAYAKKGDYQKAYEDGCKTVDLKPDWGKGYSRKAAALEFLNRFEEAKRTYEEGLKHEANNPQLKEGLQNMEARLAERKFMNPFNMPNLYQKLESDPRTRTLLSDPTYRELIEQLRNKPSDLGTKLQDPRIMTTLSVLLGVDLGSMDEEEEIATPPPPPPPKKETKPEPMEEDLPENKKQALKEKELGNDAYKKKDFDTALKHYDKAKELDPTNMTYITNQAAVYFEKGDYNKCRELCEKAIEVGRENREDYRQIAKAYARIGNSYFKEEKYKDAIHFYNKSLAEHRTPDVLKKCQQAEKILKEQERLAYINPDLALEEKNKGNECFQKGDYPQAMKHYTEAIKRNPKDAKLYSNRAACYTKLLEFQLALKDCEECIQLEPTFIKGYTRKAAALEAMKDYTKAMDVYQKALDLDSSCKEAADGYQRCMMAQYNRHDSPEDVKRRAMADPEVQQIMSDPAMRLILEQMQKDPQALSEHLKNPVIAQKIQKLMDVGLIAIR

Homo sapiens [4] = species: Homo sapiens; experiment: Binding affinity to human recombinant Hsp70 expressed in Escherichia coli at 10 to 200 uM in presence of 1% Triton-X-100 after 1 hr by Western blot analysis based pull down assay

**Q.** N=C(N)NCCC[C@H](NC(=O)[C@H](CO)NC(=O)[C@H](Cc1ccc(O)cc1)NC(=O)CNC(=O)[C@H](CCCCN)NC(=O)CCOCCOCCOCCOCCNC(=O)CCCC[C@@H]1SC[C@@H]2NC(=O)N[C@@H]21)C(=O)O ({Biotin-PEG4}-KGYSR-OH) was tested. Which Activity (Homo sapiens [1]) did it give?
**A.** The Activity was “Dose-dependent effect”.

**Q.** What about the Activity [2] of the same compound?
**A.** Its Activity is “inactive”.

**Q.** For N=C(N)NCCC[C@H](NC(=O)[C@H](CO)NC(=O)[C@H](Cc1ccc(O)cc1)NC(=O)CNC(=O)[C@@H](N)CCCCN)C(=O)O (H-KGYSR-OH), which inhibition [3] is on record?
**A.** The inhibition was “Active”.

**Q.** With CC(C)C[C@H](NC(=O)[C@H](C)NC(=O)[C@H](C)NC(=O)CCOCCOCCOCCOCCNC(=O)CCCC[C@@H]1SC[C@@H]2NC(=O)N[C@@H]21)C(=O)N[C@@H](CCC(=O)O)C(=O)N[C@@H](Cc1ccccc1)C(=O)O ({Biotin-PEG4}-AALEF-OH) as the compound, how does the Activity (Homo sapiens [4]) read?
**A.** Its Activity is “inactive”.

**Q.** What about the Activity [2] of the same compound?
**A.** The Activity was “inactive”.

Reference: ChEMBL document CHEMBL4371028, “Designing de Novo Small Molecules That Control Heat Shock Protein 70 (Hsp70) and Heat Shock Organizing Protein (HOP) within the Chaperone Protein-Folding Machinery” (J Med Chem, 2019)
